The values below come from PubChem BioAssay (NCI).

Test systems include DLD-1 colon; DMS 273 small cell lung; DMS 114 small cell lung; T-47D breast; PC-3 prostate; NCI/ADR-RES ovarian; HS 578T breast; DU-145 prostate; MDA-MB-231 breast; MDA-MB-435.
Holding throughout (assay): NCI-60 cell line screen, 48 h

Each structure is given as a SMILES string.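 Exposure lasted 48 hours, with cells grown in 96-well plates and compounds tested at five concentrations. GI50 is the concentration that inhibits growth by half. TGI: total growth inhibition.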 Where only a bound is given, the exact number is not on record here.

For `CC(C)S(=O)(=O)n1c(N)nc2ccc(/C(=N/O)c3ccccc3)cc21`, the TGI is more than 100 µM with DLD-1 colon, more than 100 µM in the assay with DMS 273 small cell lung and 43.8 µM in the assay on DMS 114 small cell lung.
Turning to `O=C(O)C(O)C(O)C1[O][Sb][O]C1CO` (stereo not drawn), the GI50 with T-47D breast, in the assay on DLD-1 colon, in the assay on PC-3 prostate, in the assay with NCI/ADR-RES ovarian, in the assay with HS 578T breast and in the assay on DMS 273 small cell lung was more than 100 µM in each case. Also, the GI50 in the assay with DMS 114 small cell lung was more than 43 µM; with DU-145 prostate it was more than 100 µM; in the assay on MDA-MB-231 breast, more than 100 µM; with MDA-MB-435 it was more than 100 µM. Also, the TGI in the assay on T-47D breast, in the assay with DLD-1 colon, with PC-3 prostate, in the assay on NCI/ADR-RES ovarian, in the assay on HS 578T breast and in the assay with DMS 273 small cell lung was more than 100 µM throughout. The TGI with DMS 114 small cell lung was 98.3 µM; with DU-145 prostate, more than 100 µM; with MDA-MB-231 breast, more than 100 µM; with MDA-MB-435, more than 100 µM.
`CCCCCCCCSC(SCCCCCCCC)=C1C(=O)N(c2ccccc2)N=C1C`: the values for the TGI in the assay on DLD-1 colon, in the assay with DMS 273 small cell lung and in the assay with DMS 114 small cell lung were 50 µM, more than 100 µM and 63.3 µM, respectively.
In the case of `Cc1nc(Nc2ccc([N+](=O)[O-])cc2)sc1C(=O)/C=C/c1ccc(N(C)C)cc1`, the TGI in the assay with DLD-1 colon, with DMS 273 small cell lung and with DMS 114 small cell lung was more than 100 µM throughout.
In the case of `C[Si](C)(C)[C@@]1([Se]c2ccccc2)CC[C@@H]1C(=O)c1ccccc1`, the TGI with DLD-1 colon, in the assay on DMS 273 small cell lung and with DMS 114 small cell lung was more than 100 µM throughout.
With `CC1=CC(=O)c2[nH]c3ccccc3c2C1=O`, the figures for the GI50 in the assay on DLD-1 colon and in the assay with DMS 273 small cell lung were 5.06 µM and 4.26 µM, respectively. Moreover, the TGI with DLD-1 colon was 8.82 µM; with DMS 273 small cell lung, 7.83 µM; with DMS 114 small cell lung, 7.82 µM.
`COc1ccc(-c2nc(N)nc(-c3cc(C)ccc3O)c2Cl)cc1`: the TGI in the assay with DLD-1 colon, in the assay on DMS 273 small cell lung and with DMS 114 small cell lung was more than 100 µM throughout.
For the compound `O=C1C=Cc2noc3cccc1c23`, the values for the TGI with DLD-1 colon, with DMS 273 small cell lung and with DMS 114 small cell lung were 3.13 µM, 20.4 µM and 4.99 µM, respectively.
